In assay [1] the target is Pim-1 (Homo sapiens (Human), UniProt P11309). The experiment in a line: Kinase inhibitory activity on Pim-1. The assay is classed as biochemical. Here is the method:
1.2 Experimental Preparation • 1.2.1 Preparation of Kinase Reaction Buffer I: The 5×Reaction Buffer A (Promega; V307A-C) provided in the kit was mixed and diluted with MILLI-Q® H2O and 0.1 M DTT (dithiothreitol) to give 4× kinase buffer, and then MILLI-Q® H2O was further added to finally formulate the solution into 1× Kinase buffer.
1 μl of 10 mM standard substance stock solution was taken and added to 9 μl of kinase reaction buffer I and mixed well; then 90 μl of kinase reaction buffer I was added and mixed well; then 100 μl of kinase reaction buffer I was added and mixed well. The final concentration was 50 μM. • b. 40 μl of kinase reaction buffer II was added into B2 to B10 of a 96-well plate, and 50 μl of the above solution was added into B1; • c. 10 μl of solution was taken from well B1, added into B2, and mixed well; then 10 μl of the resulting solution was taken and added into B3, and dilution was carried out in sequence to B9, so as to obtain control solutions that are diluted by 5-fold sequentially. • (2) Preparation of test compound solution: • a. Test compound solutions at a certain concentration were taken, respectively, diluted with kinase reaction buffer I to a final concentration of 50 μM compound solution; • b. 40 μl of kinase reaction buffer II was added into H2 to H10 of the 96-well plate; and 50 μl of the above solution was added into H1; • c. 10 μl of solution was taken from well H1, added into H2, and mixed well; then 10 μl of the resulting solution was taken and added into H3, and dilution was carried out in sequence to H9, so as to obtain test compound solutions that are diluted by 5-fold sequentially. • 1.2.4 Preparation of a mixed solution of reaction substrate and ATP: • a. Preparation of ATP solution: • 200 μl of 0.1 mM ATP solution: 2 μl of 10 mM ATP was added to 198 μl of kinase reaction buffer I; • 300 μl of 50 μM ATP solution: 150 μl of kinase reaction buffer I was added to 150 μl of the above 0.1 mM ATP solution; • b. Preparation of 300 μl of reaction substrate solution: • 150 μl 1 μg/μl reaction substrate stock solution was added to 150 μl kinase reaction buffer I, and mixed well; • c. The above a/b solutions were mixed to obtain mixed solutions, respectively.
1.3 Experimental process: • 1.3.1: 2 μl of compound solutions of various concentrations were taken, added to a 384-well plate, and centrifuged 3 minutes; • 1.3.2: 4 μl of kinase solution was added to each well, centrifuged at 5000 rpm and 18° C. for 10 minutes, and shaken on a plate shaker for 10 minutes; • 1.3.3: 4 μl of mixed solution of substrate and ATP was added to each well, centrifuged at 5000 rpm and 18° C. for 10 minutes, and shaken on a plate shaker at 37° C. for 90 minutes; • 1.3.4: The 384-well plate was taken out, and allowed to stand to room temperature; • 1.3.5: 10 μl of ADP-GLO™ reagent was added to each well, centrifuged at 5000 rpm and 18° C. for 18 minutes, and shaken on a plate shaker at 25° C. for 40 minutes, and then the reaction was stopped; • 1.3.6: 20 μl of kinase detection reagent was added to each well, centrifuged at 5000 rpm and 18° C. for 10 minutes, and shaken on a plate shaker at 25° C. for 30 minutes; and • 1.3.7: M1000pro MICROPLATE READER was used to read […] values.
(§1) The inhibition rate of each compound at each concentration point was calculated by the formula as follows and curve fitting was performed by GraphPad Prism 5 software to obtain the IC50 value.

The target of assay [2] is CDK6/CyclinD3 (Homo sapiens (Human), UniProt Q00534). The experiment in a line: CDK kinase inhibitory activity, ADP-Glo Kinase Assay, CDK6/CyclinD3. The assay is classed as biochemical. Background: In ADP-Glo the light output rises with the ADP produced.
Sequence of CDK6/CyclinD3 (Q00534 whole entry): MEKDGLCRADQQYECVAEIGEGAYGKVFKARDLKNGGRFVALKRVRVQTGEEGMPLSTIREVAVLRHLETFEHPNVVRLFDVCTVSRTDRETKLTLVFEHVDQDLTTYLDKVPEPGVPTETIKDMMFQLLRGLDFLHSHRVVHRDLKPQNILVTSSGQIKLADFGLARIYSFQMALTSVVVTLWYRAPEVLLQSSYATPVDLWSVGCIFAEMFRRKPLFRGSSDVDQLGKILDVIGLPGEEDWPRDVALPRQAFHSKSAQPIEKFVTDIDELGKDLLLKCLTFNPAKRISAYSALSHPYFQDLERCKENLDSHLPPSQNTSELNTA
Sequence of CDK6/CyclinD3 (P30281 whole entry partner): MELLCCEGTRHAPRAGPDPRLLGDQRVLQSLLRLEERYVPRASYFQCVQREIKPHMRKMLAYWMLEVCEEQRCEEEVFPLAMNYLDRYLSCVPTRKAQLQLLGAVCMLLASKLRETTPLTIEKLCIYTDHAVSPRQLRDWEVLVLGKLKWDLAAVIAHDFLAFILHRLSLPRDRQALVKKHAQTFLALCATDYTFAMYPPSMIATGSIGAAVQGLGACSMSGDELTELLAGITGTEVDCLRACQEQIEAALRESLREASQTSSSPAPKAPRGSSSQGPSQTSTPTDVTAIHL
Assay [3] deals with CDK9/CyclinD3 (Homo sapiens (Human), UniProt P50750). The experiment in a line: Kinase inhibitory activity, ADP-Glo Kinase Assay, CDK9/CyclinD3. The assay is classed as biochemical. The method in brief:
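Human CDK9/CyclinD3 ADP-Glo assay: compounds in 5-fold serial dilutions from 50 μM preincubated with kinase, then substrate plus ATP (50 μM ATP solution, stock concentration before mixing) added for 90 min at 37° C. ADP-Glo and detection reagents added, luminescence read; IC50 fitted from inhibition rates.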

The test system of assay [4] is Human breast cancer cells MDA-MB-231. Description: Inhibition of proliferation of human breast cancer cell MDA-MB-231 (DAPI, In Cell Analyzer). The assay is classed as cell-based. As to conditions: for IC50: Homo sapiens, MDA-MB-231, 72 hours incubation, read-out: IC50, proliferation of human breast cancer cell MDB-MA-231; for Inhibitory activity on proliferation of the MDA-MB-231 cell line, in words: experimental conclusion. As for the experimental part:
200 μl of medium containing 0.2% DMSO (dimethylsulfoxide) was added into B2 to B10 of a 96-well plate; 300 μl of the above solution was added into B1; and • c. 100 μl of solution was taken from well B1, added into B2, and mixed well; then 100 μl of the resulting solution was taken and added into B3, and dilution was carried out in sequence to B9, so as to obtain standard solutions diluted by 3-fold sequentially. • (2) Preparation of Test Compound Solutions • a. […] 200 μl of medium containing 0.2% DMSO (dimethylsulfoxide) was added into H2 to H10 of the 96-well plate; and 300 μl of the above solution was added into H1; and • c. 100 μl of solution was taken from well H1, added into H2, and mixed well; then 100 μl of the resulting solution was taken and added into H3, and dilution was carried out in sequence to […], so as to obtain test compound solutions diluted by 3-fold sequentially.
2.3 Experimental Process: • 2.3.1: MDA-MB-231 cells were inoculated into a 96-well cell plate with black transparent bottom at 4000 cells/100 μl/well, and cultured overnight at 37° C.; • 2.3.2: The above samples were added at 100 μl/well to a culture plate inoculated with cells, gently patted to mix well, and incubated at 37° C. for 72 hours; • 2.3.3: Fixation: the cell plate was taken out, the medium was removed, and 50 μl of 4% paraformaldehyde was added per well to fix for 10 minutes; • 2.3.4: 50 μl of 0.1M glycine was added to neutralize for 10 minutes; • 2.3.5: 1×PBS (phosphate buffer pH 7.2) was used to wash twice; • 2.3.6: Permeabilization: 50 μl of 0.2% TRITON-X®100 (Triton) was added per well, and permeabilization was carried out at room temperature for 10 minutes; • 2.3.7: 1×PBS (Phosphate buffer pH 7.2) was used to wash twice; • 2.3.8: 5 mg/mL DAPI stock solution was diluted at a ratio of 1:5000 (final concentration of 1 μg/ml), and staining was performed at room temperature for 20 minutes; • 2.3.9: 1×PBS (Phosphate buffer pH 7.2) was used to wash three times; and • 2.3.10: Scanning and analysis were performed by an IN cell analyzer 2200.
as §1

Assay [5] relates to Human glioma cell line U87 MG. The experiment in a line: Inhibition of proliferation of the U87 MG cell line (DAPI, In Cell Analyzer). The conditions noted are these: for IC50: Homo sapiens, U-87 MG, 72 hours incubation, read-out: IC50, proliferation of U87MG Cell Line. The assay is classed as cell-based. As for the experimental part:
as §1

The structures appear in SMILES notation.

Sequence of CDK9/CyclinD3 (P50750 whole entry): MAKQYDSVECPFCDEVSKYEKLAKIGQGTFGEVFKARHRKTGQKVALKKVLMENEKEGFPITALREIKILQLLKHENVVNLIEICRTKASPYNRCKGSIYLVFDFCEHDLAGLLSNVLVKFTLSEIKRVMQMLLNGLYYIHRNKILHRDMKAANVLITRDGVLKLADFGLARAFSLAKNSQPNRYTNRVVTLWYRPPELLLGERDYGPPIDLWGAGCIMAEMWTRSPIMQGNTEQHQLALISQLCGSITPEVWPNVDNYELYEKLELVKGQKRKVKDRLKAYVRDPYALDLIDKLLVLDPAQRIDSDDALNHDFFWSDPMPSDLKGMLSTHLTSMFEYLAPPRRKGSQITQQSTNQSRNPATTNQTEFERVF
Sequence of CDK9/CyclinD3 (O75909 whole entry partner): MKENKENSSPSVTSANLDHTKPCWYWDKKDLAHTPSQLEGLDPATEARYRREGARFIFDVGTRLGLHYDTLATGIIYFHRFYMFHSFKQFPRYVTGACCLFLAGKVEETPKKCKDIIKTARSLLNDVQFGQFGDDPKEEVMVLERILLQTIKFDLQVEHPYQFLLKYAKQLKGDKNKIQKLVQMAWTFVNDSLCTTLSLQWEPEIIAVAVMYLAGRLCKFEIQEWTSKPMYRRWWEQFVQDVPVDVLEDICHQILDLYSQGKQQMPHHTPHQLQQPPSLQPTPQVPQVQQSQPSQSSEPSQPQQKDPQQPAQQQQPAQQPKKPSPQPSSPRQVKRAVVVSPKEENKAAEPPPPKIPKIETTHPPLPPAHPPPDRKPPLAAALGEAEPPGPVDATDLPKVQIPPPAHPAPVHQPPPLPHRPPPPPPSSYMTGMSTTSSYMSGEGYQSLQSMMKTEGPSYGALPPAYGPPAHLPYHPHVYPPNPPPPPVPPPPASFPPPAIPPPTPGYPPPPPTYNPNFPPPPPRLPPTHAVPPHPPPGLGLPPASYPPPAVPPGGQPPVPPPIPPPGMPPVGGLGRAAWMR
Sequence of Pim-1 (P11309 whole entry): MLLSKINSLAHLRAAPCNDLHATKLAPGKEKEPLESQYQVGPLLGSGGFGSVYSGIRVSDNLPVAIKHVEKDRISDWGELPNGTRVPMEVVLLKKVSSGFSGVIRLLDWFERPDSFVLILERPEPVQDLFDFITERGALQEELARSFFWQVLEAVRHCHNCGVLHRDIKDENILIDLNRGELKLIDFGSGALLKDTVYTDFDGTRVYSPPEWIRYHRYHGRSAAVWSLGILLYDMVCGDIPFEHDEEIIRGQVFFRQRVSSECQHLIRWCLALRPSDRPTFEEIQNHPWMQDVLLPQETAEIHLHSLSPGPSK

Regarding `CCN1CCC(c2ccc(Nc3ncc(F)c(-c4cc(F)c5c(c4)C4(CCCC4)C(C)=N5)n3)nc2)CC1` [Example 12, N-(5-(1-ethylpiperidin-4-yl)pyridin-2-yl)-5-fluoro-4-(7′-fluoro-2′-methylspiro [cyclopentane-1,3′-indol]-5′-yl)pyrimidine-2-amino], the IC50 in assay [1] stood at 15.1 nM; in assay [2], 3.78 nM; in assay [3], 57.2 nM; in assay [4], 183 nM. In assay [2] (ratio of IC50s, selectivity for CDK6 over CDK1), the CDK1/CDK6 came out at 283.33. Also, the CDK9/CDK6 in assay [2] (ratio of IC50s, selectivity for CDK6 over CDK9) is 18.75. Besides, the Pim-1/CDK6 in assay [2] (ratio of IC50s, selectivity for CDK6 over Pim-1) was 3.99. Further, in assay [4], the “Inhibitory activity on proliferation of the MDA-MB-231 cell line, in words” value is given as “significant inhibitory activity”.

On to `CCN1CCN(Cc2ccc(Nc3ncc(F)c(-c4cc(F)c5nc(C)n(C(C)C)c5c4)n3)nc2)CC1` [LY2835219, reference compound], for which the figures for the IC50 in assay [5] and in assay [4] were 151 nM and 229 nM, respectively.

With `CC1=Nc2c(F)cc(-c3nc(Nc4ccc(C5CCN(C)CC5)cn4)ncc3F)cc2C12CCCC2` [Example 17, 5-Fluoro-4-(7′-fluoro-2′-methylspiro[cyclopentane-1,3′-indol]-5′-yl)-N-(5-(1-methylpiperidin-4-yl)pyridin-2-yl)pyrimidine-2-amino], the IC50 came to 38.3 nM in assay [1]; 0.73 nM in assay [2]; 35.4 nM in assay [5]; 5.36 nM in assay [3]; 110 nM in assay [4]. In addition, the “Inhibitory effect on CDK6, in words” value in assay [2] (test conclusion) is recorded as “higher enzymatic activity for CDK6”. The “Inhibitory activity on proliferation of the U87MG cell line, in words” value in assay [5] (experimental conclusion) is given as “significant inhibitory activity”. The “Inhibitory activity on proliferation of the MDA-MB-231 cell line, in words” value in assay [4] is “significant inhibitory activity”.

Values taken from patent US11091476B2, “Protein kinase inhibitors, preparation method and medical use thereof” (Gan & Lee Pharmaceuticals, priority 2015, dated 2021).
